Assay results reported in US20250195513A1, “DEGRADATION OF IRAK4 BY CONJUGATION OF IRAK4 INHIBITORS WITH E3 LIGASE LIGAND AND METHODS OF USE” (BeiGene, Ltd., priority 2022, published 2025).

Legend:
Format in all cases: cell-based
IRAK4 [1] = target: T1, IRAK4 (Homo sapiens, UniProt Q9NWZ3); assay: IRAK4 Degradation Assay (Karpas299, HTRF/TR-FRET)
T1 construct: endogenous in cells; host or cells: Karpas299
T1 sequence (Q9NWZ3 1-460): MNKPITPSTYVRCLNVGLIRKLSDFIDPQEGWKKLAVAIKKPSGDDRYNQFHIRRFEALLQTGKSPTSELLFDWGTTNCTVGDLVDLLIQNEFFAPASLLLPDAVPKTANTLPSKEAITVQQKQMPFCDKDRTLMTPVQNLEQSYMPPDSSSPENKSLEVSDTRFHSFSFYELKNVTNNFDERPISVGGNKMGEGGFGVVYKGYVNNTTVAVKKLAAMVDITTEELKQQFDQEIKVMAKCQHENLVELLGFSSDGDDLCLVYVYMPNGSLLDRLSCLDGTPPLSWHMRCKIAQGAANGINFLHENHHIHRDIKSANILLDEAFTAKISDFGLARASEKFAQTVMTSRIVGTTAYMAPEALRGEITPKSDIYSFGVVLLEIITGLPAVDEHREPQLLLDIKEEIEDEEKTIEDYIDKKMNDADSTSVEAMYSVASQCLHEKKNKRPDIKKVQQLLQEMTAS
Outline: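 Karpas299 cells at 0.2 million per well were exposed to serially diluted compounds for 24 h or 5 h, then lysed. IRAK4 remaining in lysates was quantified by HTRF (665/620 nm) after overnight antibody incubation at room temperature. Percent degradation was fitted to a four-parameter curve to give IC50 (DC50).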

IRAK4 [2] = target: T1, IRAK4; assay: IRAK4 Degradation Assay with Human Serum (Karpas299, HTRF/TR-FRET); conditions: Karpas-299 in human serum, 24 hrs treatment; for DC50: read-out: IRAK4 degradtion with human serum assay DC50; for Dmax: read-out: IRAK4 degradtion with human serum assay Dmax (%)
Outline: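 Karpas299 cells in human AB serum (0.2 million/well) treated with serial compound dilutions for 24 h. After lysis, IRAK4 quantified by HTRF (overnight antibody incubation at room temperature, 665/620 nm read). Degradation percentage fitted to four-parameter curve to give DC50.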

[3] = tested on: TNF-α production in THP-1 cells; assay: TNF-α Production Assay in THP-1 Cells (LPS stimulated); conditions: Homo sapiens, THP-1, 24 h; for Emax: maximum inhibition, read-out: TNF-α (THP-1) 24 h IMax
Outline: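 Cells (0.2 million/well) pretreated with compounds for 24 h, then stimulated with LPS at 1 μg/mL final for 24 h. TNF-α in culture supernatant quantified by TR-FRET immunoassay.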

[4] = tested on: IL-6 production in human PBMC; assay: IL-6 Production Assay in Human PBMC (LPS stimulated); conditions: Homo sapiens, 5 h; for Emax: maximum inhibition, read-out: IL-6 (PBMC) 5 h IMax
Procedure: Frozen human PBMC (AllCells) were thawed in RPMI 1640 medium (Thermo Scientific) supplemented with 10% heat-inactivated FBS (Thermo Scientific) and recovered at 37° C. overnight. The next day, PBMC were seeded into 96-well plates at the density of 0.2 million cells per well and treated with compounds for 24 h. Then lipopolysaccharide was added at the final concentration of 10 ng/mL for 5 h. Culture supernatant was collected for subsequent measurement of IL-6 concentration by a TR-FRET-based method (Degorce, François, et al. Current chemical genomics. 2009, 3: 22) as described by the manufacturer manual (Cisbio). FRET signals were measured with PHERAstar FSX reader (BMG Labtech).

[5] = Karpas-299 cells, 24 h treatment, maximum percentage of degradation, read-out: IRAK4 in Karpas-299 (24 h) Dmax (%)
[6] = Karpas-299 cells, 24 h treatment, read-out: IRAK4 in Karpas-299 (24 h) DC50
[7] = Karpas-299 cells, 5 h treatment, maximum percentage of degradation, read-out: IRAK4 in Karpas-299 (5 h) Dmax (%)
[8] = Karpas-299 cells, 5 h treatment, read-out: IRAK4 in Karpas-299 (5 h) DC50

| SMILES | Dmax (IRAK4 [1]; [5]) [%] | DC50 (IRAK4 [1]; [6]) [nM] | DC50 (IRAK4 [2]) [nM] | Dmax (IRAK4 [2]) [%] | IC50 [3] [nM] | DC50 (IRAK4 [1]; Degradation (Karpas-299), comparison table, Linker Type B, read-out: Compound (Linker Type B) DC50) [nM] | Dmax (IRAK4 [1]; Degradation (Karpas-299), comparison table, Linker Type B, read-out: Compound (Linker Type B) Dmax (%)) [%] | Dmax (IRAK4 [1]; [7]) [%] | DC50 (IRAK4 [1]; [8]) [nM] | Emax [3] [%] | IC50 [4] [nM] | Emax [4] [%] |
| --- | --- | --- | --- | --- | --- | --- | --- | --- | --- | --- | --- | --- |
| COC[C@@H]1CN([C@H]2CC[C@H](n3cc4cc(NC(=O)c5ccc6cc(C#N)cnn56)c(C(C)(C)O)cc4n3)CC2)CCN1CCc1cc(F)c([C@H]2CCC(=O)NC2=O)c(F)c1 [Example 320] | 99 | 1 | 4.1 | 98 | 43 | – | – | – | – | 85 | 9.2 | 65 |
| CC(C)(O)c1cc2nn(C34CCC(N5CCN(CCc6cc(F)c([C@H]7CCC(=O)NC7=O)c(F)c6)CC5)(CC3)CC4)cc2cc1NC(=O)c1ccc2cc(C#N)cnn12 [Example 151, (R)-3-cyano-N-(2-(4-(4-(4-(2,6-dioxopiperidin-3-yl)-3,5-difluorophenethyl)piperazin-1-yl)bicyclo[2.2.2]octan-1-yl)-6-(2-hydroxypropan-2-yl)-2H-indazol-5-yl)pyrrolo[1,2-b]pyridazine-7-carboxamide] | 99 | 0.9 | 3.9 | 101 | 27 | – | – | – | – | 84 | 7.4 | 53 |
| CC(C)(O)c1cc2nn([C@H]3CC[C@H](N4CCN(C5CN(c6cc(F)c([C@H]7CCC(=O)NC7=O)c(F)c6)C5)CC4)CC3)cc2cc1NC(=O)c1ccc2cc(C#N)cnn12 [Example 110, 3-cyano-N-(2-((1R,4r)-4-(4-(1-(4-((R)-2,6-dioxopiperidin-3-yl)-3,5-difluorophenyl)azetidin-3-yl)piperazin-1-yl)cyclohexyl)-6-(2-hydroxypropan-2-yl)-2H-indazol-5-yl)pyrrolo[1,2-b]pyridazine-7-carboxamide] | 98 | 0.8 | 8.3 | 100 | 27 | – | – | 94 | 1.1 | 83 | 1.5 | 63 |
| CC(C)(O)c1cc2nn(C3CCN(C4CCN(C(=O)[C@@H]5CCN(c6cc(F)c([C@H]7CCC(=O)NC7=O)c(F)c6)C5)CC4)CC3)cc2cc1NC(=O)c1cccc(C(F)(F)F)n1 [Example 161, N-(2-(1′-((R)-1-(4-((R)-2,6-dioxopiperidin-3-yl)-3,5-difluorophenyl)pyrrolidine-3-carbonyl)-[1,4′-bipiperidin]-4-yl)-6-(2-hydroxypropan-2-yl)-2H-indazol-5-yl)-6-(trifluoromethyl)picolinamide] | 97 | 0.3 | – | – | 38 | – | – | 91 | 5 | 85 | 4.9 | 90 |
| CC(C)(O)c1cc2nn([C@H]3CC[C@H](N4CCN(C5CCN(c6cc(F)c(C7CCC(=O)NC7=O)c(F)c6)CC5)CC4)CC3)cc2cc1NC(=O)c1ccc2cc(C#N)cnn12 (stereo partly drawn) [Example 196, 3-cyano-N-(2-((1r,4r)-4-(4-(1-(4-((R)-2,6-dioxopiperidin-3-yl)-3,5-difluorophenyl)piperidin-4-yl)piperazin-1-yl)cyclohexyl)-6-(2-hydroxypropan-2-yl)-2H-indazol-5-yl)pyrrolo[1,2-b]pyridazine-7-carboxamide] | 99 | 0.6 | 8.8 | 93 | 20 | – | – | 99 | 5.3 | 86 | 11 | 72 |
| O=C1CC[C@H](c2c(F)cc(N3CC[C@@H](C(=O)N4CCN([C@H]5CC[C@H](n6cc(NC(=O)c7coc(-c8ccnc(NCC(F)(F)F)c8)n7)c(C(F)F)n6)CC5)CC4)C3)cc2F)C(=O)N1 [Example 17, N-(3-(difluoromethyl)-1-((1R,4r)-4-(4-((R)-1-(4-((R)-2,6-dioxopiperidin-3-yl)-3,5-difluorophenyl)pyrrolidine-3-carbonyl)piperazin-1-yl)cyclohexyl)-1H-pyrazol-4-yl)-2-(2-((2,2,2-trifluoroethyl)amino)pyridin-4-yl)oxazole-4-carboxamide] | 97 | 2.2 | – | – | 34 | – | – | 96 | 8.8 | 87 | 6.7 | 93 |

Continued, in another order:

| Dmax (IRAK4 [1]; [5]) [%] | DC50 (IRAK4 [1]; [6]) [nM] | DC50 (IRAK4 [2]) [nM] | Dmax (IRAK4 [2]) [%] | IC50 [3] [nM] | DC50 (IRAK4 [1]; Degradation (Karpas-299), comparison table, Linker Type B, read-out: Compound (Linker Type B) DC50) [nM] | Dmax (IRAK4 [1]; Degradation (Karpas-299), comparison table, Linker Type B, read-out: Compound (Linker Type B) Dmax (%)) [%] | Dmax (IRAK4 [1]; [7]) [%] | DC50 (IRAK4 [1]; [8]) [nM] | SMILES | Emax [3] [%] | IC50 [4] [nM] | Emax [4] [%] |
| --- | --- | --- | --- | --- | --- | --- | --- | --- | --- | --- | --- | --- |
| 96 | 0.7 | – | – | 34 | 0.7 | 96 | 93 | 9.1 | COc1cc2nn([C@H]3CC[C@H](N4CCN(C(=O)C5CN(c6ccc(N7CCC(=O)NC7=O)cc6)C5)CC4)CC3)cc2cc1NC(=O)c1cccc(C(F)(F)F)n1 [Example 37, N-(2-((1r,4r)-4-(4-(1-(4-(2,4-dioxotetrahydropyrimidin-1(2H)-yl)phenyl)azetidine-3-carbonyl)piperazin-1-yl)cyclohexyl)-6-methoxy-2H-indazol-5-yl)-6-(trifluoromethyl)picolinamide] | 82 | 11 | 90 |
| 99 | 0.4 | – | – | 19 | – | – | 95 | 2.3 | CC(C)(O)c1cc2nn([C@H]3CC[C@H](N4CCN(C(=O)C5CN(c6cc(F)c([C@H]7CCC(=O)NC7=O)c(F)c6)C5)CC4)CC3)cc2cc1NC(=O)c1cccc(C(F)(F)F)n1 [Example 38, N-(2-((1r,4r)-4-(4-(1-(4-((R)-2,6-dioxopiperidin-3-yl)-3,5-difluorophenyl)azetidine-3-carbonyl)piperazin-1-yl)cyclohexyl)-6-(2-hydroxypropan-2-yl)-2H-indazol-5-yl)-6-(trifluoromethyl)picolinamide] | 87 | 2.1 | 91 |
| 98 | 0.7 | – | – | 73 | – | – | 97 | 13 | [2H]C([2H])([2H])Oc1cc2nn([C@H]3CC[C@H](N4CCN(C(=O)C5CN(c6cc(F)c([C@H]7CCC(=O)NC7=O)c(F)c6)C5)CC4)CC3)cc2cc1NC(=O)c1cccc(C(F)(F)F)n1 [Example 165, N-(2-((1r,4r)-4-(4-(1-(4-((R)-2,6-dioxopiperidin-3-yl)-3,5-difluorophenyl)azetidine-3-carbonyl)piperazin-1-yl)cyclohexyl)-6-(methoxy-d3)-2H-indazol-5-yl)-6-(trifluoromethyl)picolinamide] | 82 | 7.9 | 91 |
| 95 | 3.6 | – | – | 77 | – | – | 81 | 18 | COc1cc2nn([C@H]3CC[C@H](CN4CCN(C(=O)[C@H]5CCN(c6ccc(N7CCC(=O)NC7=O)cc6)C5)CC4)CC3)cc2cc1NC(=O)c1cccn(C2CC2)c1=O [Example 34, 1-cyclopropyl-N-(2-((1S,4r)-4-((4-((S)-1-(4-(2,4-dioxotetrahydropyrimidin-1(2H)-yl)phenyl)pyrrolidine-3-carbonyl)piperazin-1-yl)methyl)cyclohexyl)-6-methoxy-2H-indazol-5-yl)-2-oxo-1,2-dihydropyridine-3-carboxamide] | 72 | 18 | 85 |
